A word on the IC50: it is the concentration at which inhibition is half-maximal.

In US6967196B1, “Sulfonamide compounds and uses thereof” (Bristol-Myers Squibb Company, priority 1999, dated 2005) one finds IC50 data, which are given here for 33 substances.

The test system of the first test is amyloid β production in transfected H4 (human neuroglioma) cells stably expressing APP constructs. In words: In vitro cell-based assay of inhibitors of amyloid β production (ELISA). The settings on record: transfected H4 cells stably expressing APP constructs; approximately 16 hours incubation; amyloid β in medium by ELISA; read-out: ACTIVITY (IC50, inhibition of amyloid β production). On the procedure:
In Vitro Cell-Based Assay of Inhibitors of Amyloid β Production
Transfected H4 (human neuroglioma) cells stably expressing APP constructs are used to identify and assess inhibitors of Aβ production. In brief, cells lines are exposed to compounds, and the effect of each compound on amyloid β production is determined by measuring the amount of amyloid β produced using an enzyme linked immunosorbent assay (ELISA) that detects amyloid β (see, for example, Seubert et al., (1992) Nature, 359:325-327).
Transfected cells that stably express wild-type and variant forms of APP are plated in 96-well format plates at a density sufficient for the rapid detection of the secreted amyloid β (experimentally predetermined for a particular stable cell population). Cells are plated at least six hours prior to the introduction of the test compound at which time the growth medium is replaced by fresh medium containing the compound to be tested. All synthetic agents are initially screened at doses ranging from 10-100 μM. Higher dilutions of agents can be used to minimize cytotoxicity. Incubation of cells with a test compound continues for approximately 16 hours at which time aliquots of medium from each well are removed and assayed for amyloid β.
ELISA is carried out by methods known in the art (see, e.g., Haass et al., Antibodies: A Laboratory Manual, Harlow and lane, Editors, Cold Spring Harbor Press, 1988) The capture antibody is typically a mouse monoclonal (IgG1/kβ-APPa) which recognizes the carboxyl terminal epitope of amyloid β. The specificity of the capture antibody insures measurement of amyloid β without interference from other secreted APP fragments that share amino acid sequence (amyloid β 1-16) homology with amyloid β but lack the carboxy-terminal region. The detecting antibody is typically an affinity-purified rabbit polyclonal antibody that is specific for the amino terminus of amyloid β.
Results from test compounds are compared to results obtained when cells are treated with control agents. Amyloid β levels are determined by comparison to a standard curve obtained by subjecting a range of known amounts of amyloid β to the ELISA.
A compound is identified as “active” when it inhibits cellular production of amyloid β relative to levels in control samples by at least 50% at the initial tested concentration without significant cytotoxicity. Active compounds are then assayed in dose-response experiments to determine the lowest dose of compound necessary for inhibition of amyloid β production.
As to “4-[2-({[(2-nitrophenyl)sulfonyl]anilino}methyl)phenyl]butanoic acid [Example 1097]”, the IC50 is greater than 10000 nM.

With “4-chloro-2-({[(4-chlorophenyl)sulfonyl]anilino}methyl)phenyl trifluoromethanesulfonate [Example 1090]”, the IC50 is greater than 10000 nM.

The test is the same for the next values; noted with them: transfected H4 cells stably expressing APP; approx. 16 h incubation; amyloid β in medium by ELISA; read-out: ACTIVITY (IC50, inhibition of amyloid β production).
With “2-[2-((1R)-1-{[(4-chlorophenyl)sulfonyl]-2,5-difluoroanilino}ethyl)phenyl]ethyl 1,2,3,4-tetrahydro-1-naphthalenylcarbamate [Example 644]”, the IC50 lay in the range of 100 to 500 nM.

“2-[2-((1R)-1-{[(4-chlorophenyl)sulfonyl]-2,5-difluoroanilino}ethyl)phenyl]ethyl 3,4-difluorobenzylcarbamate [Example 726]”: the 50% inhibitory concentration (IC50) lay in the range of 100 to 500 nM.

With “2-[2-((1R)-1-{[(4-chlorophenyl)sulfonyl]-2,5-difluoroanilino}ethyl)phenyl]ethyl phenylcarbamate [Example 762]”, the IC50 is 100 to 500 nM.

Consider “2-[2-((1R)-1-{[(4-chlorophenyl)sulfonyl]-2,5-difluoroanilino}ethyl)phenyl]ethyl sec-butylcarbamate [Example 650]”, for which the IC50 lay within 100 to 500 nM.

Regarding “2-bromo-N-{3-(2-({[(4-chlorophenyl)sulfonyl]-2,5-difluoroanilino}methyl)phenoxy]propyl}-N-methylbenzamide [Example 641]”, the IC50 was 100 to 500 nM.

For the substance “2-chloro-N-{3-[2-(1-{[(4-chlorophenyl)sulfonyl]-2,5-difluoroanilino}methyl)phenoxy]propyl}-N-methylbenzamide [Example 774]”, the IC50 is 100 to 500 nM.

Take “3-[2-((1R)-1-{[(4-chlorophenyl)sulfonyl]-2,5-difluoroanilino}ethyl)phenyl]-N-isopropylpropanamide [Example 655]”: the IC50 fell in the range of 100 to 500 nM.

As for “3-[2-((1R)-1-{[(4-chlorophenyl)sulfonyl]-2,5-difluoroanilino}ethyl)phenyl]propyl benzyl(methyl)carbamate [Example 763]”, the IC50 was 100 to 500 nM.

Consider “3-[2-((1R)-1-{[(4-chlorophenyl)sulfonyl]-2,5-difluoroanilino}ethyl)phenyl]propyl phenylcarbamate [Example 730]”, for which the IC50 is 100 to 500 nM.

For “3-chloro-N-{3-[2-(1-{[(4-chlorophenyl)sulfonyl]-2,5-difluoroanilino}ethyl)phenoxy]propyl}-N-methylbenzamide [Example 688]”, the half-maximal inhibitory concentration (IC50) is 100 to 500 nM.

For “3-chloro-N-{3-[2-(1-{[(4-chlorophenyl)sulfonyl]-2,5-difluoroanilino}ethyl)phenoxy]propyl}-N-methylbenzenesulfonamide [Example 684]”, the half-maximal inhibitory concentration (IC50) lay in the range of 100 to 500 nM.

“4-bromo-N-{3-[2-(1-{[(4-chlorophenyl)sulfonyl]-2,5-difluoroanilino}ethyl)phenoxy]propyl}-N-methylbenzamide [Example 683]”: the concentration for half-maximal inhibition (IC50) fell in the range of 100 to 500 nM.

Staying with this test, now noted: transfected H4 cells stably expressing APP; approximately 16 hours incubation; amyloid β in medium by ELISA; Table B; read-out: ACTIVITY (IC50, inhibition of amyloid β production).
In the case of “2-[2-((1R)-1-{[(4-chlorophenyl)sulfonyl]-2,5-difluoroanilino}ethyl)-5-fluorophenyl]ethyl 2,5-difluorobenzylcarbamate [Example 358]”, the IC50 was 50 to 100 nM.

Consider “3-[2-((1R)-1-{[(4-chlorophenyl)sulfonyl]-2,5-difluoroanilino}ethyl)phenyl]-N-(2,5-difluorobenzyl)propanamide [Example 383]”, for which the IC50 is 50 to 100 nM.

Staying with this test, now noted: transfected H4 cells stably expressing APP; approximately 16 hours incubation; amyloid β in medium by ELISA; read-out: ACTIVITY (IC50, inhibition of amyloid β production).
In the case of “2-[2-(1-{[(4-chlorophenyl)sulfonyl]-2,5-difluoroanilino}ethyl)phenoxy]-N-methylacetamide [Example 1064]”, the IC50 is greater than 500 nM.

With “3,4-dichloro-N-{3-[2-(1-{[(4-chlorophenyl)sulfonyl]-2,5-difluoroanilino}ethyl)phenoxy]propyl}-N-methylbenzamide [Example 847]”, the IC50 lay in the range of 100 to 500 nM.

For the substance “3,4-dichloro-N-{3-[2-(1-{[(4-chlorophenyl)sulfonyl]-2,5-difluoroanilino}ethyl)phenoxy]propyl}-N-methylbenzenesulfonamide [Example 822]”, the IC50 was 100 to 500 nM.

Regarding “3,4-dichloro-N-{3-[2-({[(4-chlorophenyl)sulfonyl]-2,5-difluoroanilino}methyl)phenoxy]propyl}-N-methylbenzamide [Example 932]”, the IC50 was greater than 500 nM.

Consider “3,5-dichloro-N-{3-[2-(1-{[(4-chlorophenyl)sulfonyl]-2,5-difluoroanilino}ethyl)phenoxy]propyl}-N-methylbenzamide [Example 950]”, for which the IC50 is greater than 500 nM.

As for “3,5-dichloro-N-{3-[2-({[(4-chlorophenyl)sulfonyl]-2,5-difluoroanilino}methyl)phenoxy]propyl}-N-methylbenzamide [Example 1002]”, the IC50 is greater than 500 nM.

With “3-(2-{[(phenylsulfonyl)anilino]methyl}phenyl)propanoic acid [Example 993]”, the IC50 is greater than 500 nM.

In the case of “3-((4R)-4-{[(4-chlorophenyl)sulfonyl]-2,5-difluoroanilino}-7-fluoro-1,2,3,4-tetrahydro-1-naphthalenyl)propanoic acid [Example 1007]”, the IC50 was greater than 500 nM.

Turning to “3-[2-(2-{[(4-chlorophenyl)sulfonyl]-2,5-difluoroanilino}-1-methylethyl)-5-fluorophenyl]butanoic acid [Example 940]”, the IC50 is greater than 500 nM.

As for “3-[2-((1R)-1-{[(4-chlorophenyl)sulfonyl]-2,5-difluoroanilino}ethyl)-5-fluorophenyl]-1-propanesulfonic acid [Example 881]”, the IC50 is greater than 500 nM.

For “3-bromo-N-{3-[2-(1-{[(4-chlorophenyl)sulfonyl]-2,5-difluoroanilino}ethyl)phenoxy]propyl}-N-methylbenzamide [Example 820]”, the IC50 is 100 to 500 nM.

Regarding “3-bromo-N-{3-[2-(1-{[(4-chlorophenyl)sulfonyl]-2,5-difluoroanilino}ethyl)phenoxy]propyl}-N-methylbenzenesulfonamide [Example 806]”, the IC50 was 100 to 500 nM.

Turning to “3-bromo-N-{3-[2-(1-{[(4-chlorophenyl)sulfonyl]-2,5-difluoroanilino}ethyl)phenoxy]propyl}benzamide [Example 829]”, the IC50 is 100 to 500 nM.

Consider “3-chloro-N-{3-[2-(1-{[(4-chlorophenyl)sulfonyl]-2,5-difluoroanilino}ethyl)phenoxy]propyl}benzamide [Example 900]”, for which the IC50 is greater than 500 nM.

As for “4-[2-((1R)-1-{[(4-chlorophenyl)sulfonyl]-2,5-difluoroanilino}ethyl)-5-fluorophenyl]-N-(cyanomethoxy)butanamide [Example 1079]”, the half-maximal inhibitory concentration (IC50) is greater than 500 nM.

As to “4-benzoyl-N-((1S)-1-{{(3-[2-({[(4-chlorophenyl)sulfonyl]-2,5-difluoroanilino}methyl)phenoxy]propyl}(methyl)amino]carbonyl}-5-{[5-(2-oxohexahydro- [Example 1053]”, the IC50 is greater than 500 nM.

On to “4-butoxy-N-{3-[2-({[(4-chlorophenyl)sulfonyl]-2,5-difluoroanilino}methyl)phenoxy]propyl}-N-methylbenzamide [Example 817]”, for which the IC50 was 100 to 500 nM.
